# Patent publication US7892350B2, “Sacrificial agents for fly ash concrete” (Boral Material Technologies Inc., priority 2003, dated 2011)
# Experiments:
# [1] = Adsorption/precipitation of SA or AEA in 10 wt % aqueous fly ash or cement slurries at pH 12.5; format: physicochemical; details: initial SA 3 mM
# Method: Adsorption/Precipitation of Sacrificial Agents (SA) or Air Entrainment Agents (AEA) in 10 wt % Aqueous Fly Ash Slurries at pH 12.5:
# (§1) The pH of the solutions were adjusted to 12.5 with NaOH.
# Adsorption/Precipitation in FA or Cement Slurries: In this protocol, aqueous slurries containing 10 wt % FA or cement were prepared as described above, except that in this case, the cement was added directly into a solution of the SA or AEA in the following proportions: 3.0 g cement or FA, and 27 g of 3 mM sacrificial agent, or 27 g of 1050 mg/l AEA; the latter were prepared in the same way as in the precipitation test above. The residual (soluble) SA or AEA content in the solution was also determined by UV or COD.
# [2] = Paste air entrainment, Minimum air protocol
# Method: Preparation of pastes: Pastes were prepared by pouring 400 g of cementitious powder in the 350-400 g of solution (water and additives) in a vessel (8.4 cm dia,×14.5 cm height) while gently stirring with a spatula; the exact quantity of water depends on the selected W/B ratio (see below); rapid hand mixing was continued for 1 minute, followed by intense stirring at 25° C. during 2 min using a hand-held mixer (BRAUN model MR400). The level of air entrained is dependent on the mode of utilisation of the mixer, namely the height of the mixer from the bottom of the vessel and the length of the mixing stroke; the following protocols were adopted.
# Minimum air protocol: The BRAUN mixer is positioned at 1.0 inch from the bottom of the mixing vessel and the up-down motion of the mixer is limited to a 1.0 inch displacement; this provided ‘minimum air’ entrained air levels and is later referred to as ‘Minimum air protocol’ (Results reported in Table 6, col. 1 and Table 7).
# Fluidity measurements: For all air entrainment measurements, the initial fluidity of the paste (without additives) was controlled using the ‘mini-slump’ procedure widely used for paste and grouts. In this protocol, a portion of the paste was transferred into the min-slump cone (a 2¼″ high, 1½″ bottom diameter, ¾″ top diameter cone); excess paste was skimmed-off with a straight; the cone was then raised and the spread diameter of the paste was recorded (average of two measurements). The fluidity is measured at 10 minutes after mixing. The paste is returned to the batch and reserved for subsequent AE measurements. The fluidity of the paste (without SA and AEA) is adjusted by changing the amount of water (water/cementitious ratio) which yields a spread diameter of 115±5 mm. The latter is monitored regularly.
# Air entrainment measurements: For air entrainment measurements, a portion of the paste was transferred to overfill a Plexiglas cylinder (3¾ inches height, 2 inches interior diameter), which was then levelled flush to the top of the cylinder with a straight edge. The mass of the filled cylinder, minus the weight of the empty cylinder, is then recorded and used to calculate the amount of air according to the following formula: […]
# This procedure was carried out at three times at 30 min. intervals (6, 36 and 66 min); the paste was let to stand at rest between measurements, and was stirred gently by hand for one minute prior to the subsequent air entrainment measurements.
# Typical mixture compositions for air entrainment measurements in pastes containing a single additive using ‘Minimum air protocol’ (results shown in Table 6, col. 1): […]
# [3] = Precipitation in slurry extract or leachate; format: physicochemical; details: pH 12.5, entries in parentheses
# Method: as §1
# Precipitation in slurry extract or leachate: To perform this test, FA or cement leachate were prepared in advance, by filtering two liters of a 10 wt % FA, or cement, slurry in 0.03N NaOH which had been left to stand under slow agitation for 30 min; 2.5 g of the filtrate solution was mixed with 22.5 g of the SA or AEA solution in a 50 ml polypropylene centrifuge tube; the latter was shaken vigorously in an orbital shaker (Eberbach Corporation) for 30 min at room temperature, centrifuged for 5 min and then the supernatant solution was filtered (0.45 μm). The SA or AEA content of the solution was determined using an Ultraviolet-Visible (UV) spectrometer or by COD (Chemical Oxygen Demand) measurement.
# Entries in parentheses: % precipitation when reacted with solutions extracted from the fly ash slurries (Results in Table 5).
# [4] = Paste air entrainment, Maximum air protocol
# In short: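 Pastes of 400 g cementitious powder in water plus additives, hand-mixed 1 min then mixer-stirred 2 min at 25 °C; water/binder ratio set so additive-free paste gives 115±5 mm mini-slump spread at 10 min. Air content calculated from mass of paste filling a fixed-volume cylinder at 6, 36 and 66 min, paste at rest between readings and hand-stirred 1 min beforehand.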
# [5] = Air entrainment in fresh concrete (ASTM C 231-97)
# Method: The sacrificial agents were added to the cementitious mixtures in several ways: • 1) mixing together with water and air entrainment agent solution • 2) premixed with the fly ash • 3) post-added into the fresh concrete which already contained the air entrainment agent.
structure (smiles),measurement,setting,value
"OCCOc1ccccc1 [EGPE, Ethylene glycol phenyl ether]",Adsorption (wt % Adsorbed),"[1]; 10 wt % fly ash B1 (LOI 4.36%) slurry, Air 30/Air 40 0.105 wt %",12 wt %
same,Adsorption (wt % Adsorbed),"[1]; 10 wt % fly ash C1, class C (LOI 1.62%) slurry, Air 30/Air 40 0.105 wt %",12 wt %
same,Adsorption (wt % Adsorbed),[1]; 10 wt % fly ash C2 (LOI 3.32%) slurry,6 wt %
same,Adsorption (wt % Adsorbed),"[1]; 10 wt % fly ash M1 (LOI […]) slurry, Air 30/Air 40 0.105 wt %",4 wt %
same,Adsorption (wt % Adsorbed),"[1]; 10 wt % fly ash M2 (LOI 5.34%) slurry, Air 30/Air 40 0.105 wt %",14 wt %
same,Adsorption (wt % Adsorbed),"[1]; 10 wt % fly ash M3 (LOI 11.33%) slurry, Air 30/Air 40 0.105 wt %",14 wt %
same,Adsorption (wt % Adsorbed),[1]; 10 wt % fly ash N (LOI 0.30%) slurry,1 wt %
same,Air entrained,"[2]; 50:50 fly ash B1 (LOI 4.36%):PCA paste, 0.1 wt % Air 30 alone or with 0.05 wt % of the SA",4 vol %
same,Air entrained,"[2]; 50:50 fly ash C1 (LOI 1.62%):PCA paste, 0.1 wt % Air 30 alone or with 0.05 wt % of the SA",5 vol %
same,Air entrained,"[2]; 50:50 fly ash D (LOI […]):PCA paste, 0.1 wt % Air 30 alone or with 0.05 wt % of the SA",5 vol %
same,Air entrained,"[2]; 50:50 fly ash M1 (LOI […]):PCA paste, 0.1 wt % Air 30 alone or with 0.05 wt % of the SA",5 vol %
same,Air entrained,"[2]; 50:50 fly ash M2 (LOI 5.34%):PCA paste, 0.1 wt % Air 30 alone or with 0.05 wt % of the SA",4 vol %
same,Air entrained,"[2]; 50:50 fly ash M3 (LOI 11.33%):PCA paste, 0.1 wt % Air 30 alone or with 0.05 wt % of the SA",4 vol %
same,Air entrained,"[2]; 50:50 fly ash R (LOI […]):PCA paste, 0.1 wt % Air 30 alone or with 0.05 wt % of the SA",5 vol %
same,Air entrained,"[2]; PCA cement paste, 0.1% SA or AEA alone, Minimum air protocol",0 vol %
same,Average of air entrained,"[2]; over the fly ash:PCA pastes of Table 7, 0.1 wt % Air 30 alone or with 0.05 wt % of the SA",4%
same,Precipitation (wt % precipitated),[3]; solution extracted from 10 wt % fly ash B1 (LOI 4.36%) slurry,0 wt %
same,Precipitation (wt % precipitated),"[3]; solution extracted from 10 wt % fly ash C1, class C (LOI 1.62%) slurry",0 wt %
same,Precipitation (wt % precipitated),[3]; solution extracted from 10 wt % fly ash C2 (LOI 3.32%) slurry,0 wt %
same,Precipitation (wt % precipitated),[3]; solution extracted from 10 wt % fly ash M1 (LOI […]) slurry,1 wt %
same,Precipitation (wt % precipitated),[3]; solution extracted from 10 wt % fly ash M2 (LOI 5.34%) slurry,0 wt %
same,Precipitation (wt % precipitated),[3]; solution extracted from 10 wt % fly ash M3 (LOI 11.33%) slurry,0 wt %
same,Precipitation (wt % precipitated),[3]; solution extracted from 10 wt % fly ash N (LOI 0.30%) slurry,0 wt %
same,Air entrained at 66 min,"[4]; 50:50 fly ash B1 (LOI 4.36%):PCA paste, Air 30 (0.0125%)/NS/X=1/4/4, X = the labelled SA",4 vol %
same,Air entrained at 66 min,"[4]; 50:50 fly ash B1 (LOI 4.36%):PCA paste, Air 30 (0.0125 wt %)/ND/X=1/4/4, X = the labelled SA",14 vol %
same,Air entrained at 66 min,"[4]; 50:50 fly ash C1 (LOI 1.62%):PCA paste, Air 30 (0.0125%)/NS/X=1/4/4, X = the labelled SA",9 vol %
same,Air entrained at 66 min,"[4]; 50:50 fly ash C1 (LOI 1.62%):PCA paste, Air 30 (0.0125 wt %)/ND/X=1/4/4, X = the labelled SA",19 vol %
same,Air entrained at 66 min,"[4]; 50:50 fly ash D (LOI […]):PCA paste, Air 30 (0.0125%)/NS/X=1/4/4, X = the labelled SA",15 vol %
same,Air entrained at 66 min,"[4]; 50:50 fly ash D (LOI […]):PCA paste, Air 30 (0.0125 wt %)/ND/X=1/4/4, X = the labelled SA",22 vol %
same,Air entrained at 66 min,"[4]; 50:50 fly ash M1 (LOI […]):PCA paste, Air 30 (0.0125%)/NS/X=1/4/4, X = the labelled SA",11 vol %
same,Air entrained at 66 min,"[4]; 50:50 fly ash M1 (LOI […]):PCA paste, Air 30 (0.0125 wt %)/ND/X=1/4/4, X = the labelled SA",18 vol %
same,Air entrained at 66 min,"[4]; 50:50 fly ash M2 (LOI 5.34%):PCA paste, Air 30 (0.0125%)/NS/X=1/4/4, X = the labelled SA",3 vol %
same,Air entrained at 66 min,"[4]; 50:50 fly ash M2 (LOI 5.34%):PCA paste, Air 30 (0.0125 wt %)/ND/X=1/4/4, X = the labelled SA",11 vol %
same,Air entrained at 66 min,"[4]; 50:50 fly ash M3 (LOI 11.33%):PCA paste, Air 30 (0.0125%)/NS/X=1/4/4, X = the labelled SA",3 vol %
same,Air entrained at 66 min,"[4]; 50:50 fly ash M3 (LOI 11.33%):PCA paste, Air 30 (0.0125 wt %)/ND/X=1/4/4, X = the labelled SA",13 vol %
same,Air entrained at 66 min,"[4]; 50:50 fly ash R (LOI […]):PCA paste, Air 30 (0.0125%)/NS/X=1/4/4, X = the labelled SA",11 vol %
same,Air entrained at 66 min,"[4]; 50:50 fly ash R (LOI […]):PCA paste, Air 30 (0.0125 wt %)/ND/X=1/4/4, X = the labelled SA",18 vol %
same,Air entrained,"[4]; PCA cement paste, 0.0125% SA or AEA alone, Maximum air protocol",1 vol %
same,Air entrained at 66 min,"[4]; PCA paste, no fly ash, Air 30 (0.0125 wt %)/ND/X=1/4/4, X = the labelled SA",23 vol %
same,air entrained (average),"[4]; fly ash:cement pastes, SA added at four (4) times the fixed Air 30 dosage (0.0125%)",7%
same,Average of air entrained at 66 min,"[4]; over the fly ash:PCA pastes of Table 9, Air 30 (0.0125 wt %)/ND/X=1/4/4, X = the labelled SA",17%
same,Air,"[5]; 25% B1 fly ash (LOI 1.9%):PCA concrete, Air 40 0.003 % CM + EGPE 0.100 % CM",5.1%
same,Air,"[5]; 25% B1 fly ash (LOI 1.9%):PCA concrete, Air 40 0.006 % CM + EGPE 0.100 % CM",6.2%
same,Air,"[5]; 25% B1 fly ash (LOI 1.9%):PCA concrete, Air 40 0.009 % CM + EGPE 0.100 % CM",7.4%
same,Air,"[5]; Air 30 0.006 % CM, EGPE 0.100 % CM added during batching, PCA cement, B1 fly ash 25 %, LOI […]",11.4%
same,Air,"[5]; Air 30 0.006 % CM, EGPE 0.100 % CM premixed with fly ash, PCA cement, B1 fly ash 25 %, LOI […]",10.0%
same,Air,"[5]; Air 40 0.003 % CM, EGPE 0.100 % CM added during batching, PCA cement, B1 fly ash 25 %, LOI […]",2.7%
same,Air,"[5]; Air 40 0.003 % CM, EGPE 0.100 % CM premixed with fly ash, PCA cement, B1 fly ash 25 %, LOI […]",2.9%
same,Air,"[5]; Air 40 0.008 % CM, EGPE 0.100 % CM added during batching, PCA cement, B1 fly ash 25 %, LOI […]",4.9%
same,Air,"[5]; Air 40 0.008 % CM, EGPE 0.100 % CM premixed with fly ash, PCA cement, B1 fly ash 25 %, LOI […]",4.7%
same,"% air, levelling-off","[5]; B1 fly ash ([…] LOI):PCA concrete, Air 40 0.003 wt %, increasing dosages of EGPE",6-8 vol %
same,% air,"[5]; B1 fly ash ([…] LOI):PCA concrete, EGPE 0.1 wt % with increasing Air 40 dosage",approx 5%
same,Air,"[5]; PCA cement concrete, no fly ash, Air 40 0.003 % CM + EGPE 0.050 % CM",6.5%
same,Air,"[5]; PCA cement concrete, no fly ash, Air 40 0.003 % CM + EGPE 0.100 % CM",6.5%
same,Air,"[5]; PCA cement concrete, no fly ash, Air 40 0.003 % CM + EGPE 0.200 % CM",6.2%
same,Air,"[5]; PCA cement concrete, no fly ash, Air 40 0.006 % CM + EGPE 0.050 % CM",8.1%
same,Air,"[5]; PCA cement concrete, no fly ash, Air 40 0.006 % CM + EGPE 0.100 % CM",8.3%
same,Air,"[5]; PCA cement concrete, no fly ash, Air 40 0.006 % CM + EGPE 0.200 % CM",8.0%
same,Air,"[5]; PCC cement concrete, no fly ash, no Air 40, EGPE alone 0.010 % CM",1.9%
same,Air,"[5]; PCC cement concrete, no fly ash, no Air 40, EGPE alone 0.030 % CM",2.0%
same,Air,"[5]; PCC cement concrete, no fly ash, no Air 40, EGPE alone 0.050 % CM",2.0%
same,Air,"[5]; PCC cement concrete, no fly ash, no Air 40, EGPE alone 0.100 % CM",2.1%
same,increase in air entrained above the control values,"[5]; cement-only concrete without air entrainment agents, various dosages",about 1%
